How the values were obtained:
Assay type in all cases: cell-based
[1] = biological target: T1, signal peptidase IB (SpsB) (Staphylococcus aureus, UniProt P0A070); assay: FRET substrate cleavage assay with SpsB (activation)
T1 sequence (P0A070 1-191): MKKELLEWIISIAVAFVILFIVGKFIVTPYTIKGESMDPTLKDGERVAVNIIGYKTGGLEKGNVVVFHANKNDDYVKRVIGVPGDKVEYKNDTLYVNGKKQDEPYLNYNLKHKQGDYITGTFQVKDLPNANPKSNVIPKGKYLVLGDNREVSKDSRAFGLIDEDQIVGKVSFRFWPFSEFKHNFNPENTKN

[2] = biological target: signal peptidase IB (SpsB) (Staphylococcus aureus, UniProt P0A070, Q165A); assay: enzyme turnover assay with SpsB mutant (activation retained)
[3] = biological target: signal peptidase IB (SpsB) (Staphylococcus aureus, UniProt P0A070); assay: FRET substrate cleavage assay with membrane-bound SpsB (activation); supported by competition of photoprobe labelling in cells and loss of activation in pocket mutants

Row | Compound | FRET substrate cleavage assay with SpsB (activation) [1] | enzyme turnover assay with SpsB mutant (activation retained) [2] | % [3]
1 | N=C(N)NCc1ccc(-c2ccc(Br)cc2)s1 [D10] | Further structural derivatives (D10, D14, and D16) also showed SpsB activation in the FRET assay | – | –
2 | NCc1ccc(-c2ccc(Br)cc2)o1 [D14] | Further structural derivatives (D10, D14, and D16) also showed SpsB activation in the FRET assay | – | –
3 | Nc1nccn1Cc1ccc(-c2ccc(Br)cc2)o1 [D16] | Further structural derivatives (D10, D14, and D16) also showed SpsB activation in the FRET assay | – | –
4 | N=C(N)NCc1ccc(-c2ccc(Br)cc2)o1 [L15] | – | while Q165A, a control mutation that does not affect binding, still showed activation | ~ 150%
